# Measured values: publication PMC7804859, “A metabolically stable apelin-17 analog decreases AVP-induced antidiuresis and improves hyponatremia” (Nature Communications, 2021)
# Several values for one entry are separate records, joined by “and”; a condition that tells them apart may be missing. Equal entries are not always repeated.
# How the values were obtained:
# rat apelin-R = biological target: T1, rat apelin-R (Rattus norvegicus, UniProt Q9JHG3); test: Radioligand binding ([125I]-pE13F) to membranes from CHO cells stably expressing rat apelin-R-EGFP; conditions: 1 h 20 °C, pH 7.4, new batch of LIT01-196
# T1 construct: expressed in transfected cells; membrane preparation
# T1 sequence (Q9JHG3 1-377): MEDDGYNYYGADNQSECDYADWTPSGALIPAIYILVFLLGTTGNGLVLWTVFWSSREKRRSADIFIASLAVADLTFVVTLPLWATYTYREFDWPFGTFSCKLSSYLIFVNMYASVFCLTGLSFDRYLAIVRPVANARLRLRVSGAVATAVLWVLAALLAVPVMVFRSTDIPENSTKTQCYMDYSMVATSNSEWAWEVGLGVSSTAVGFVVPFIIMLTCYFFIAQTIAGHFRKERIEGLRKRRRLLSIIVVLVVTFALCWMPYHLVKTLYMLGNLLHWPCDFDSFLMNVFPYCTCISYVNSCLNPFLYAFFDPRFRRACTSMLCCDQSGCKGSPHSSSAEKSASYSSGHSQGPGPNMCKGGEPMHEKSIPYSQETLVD
# Procedure: Membranes from CHO cells stably expressing rat apelin-R-EGFP were prepared as previously described[23]. […] The reaction was stopped by adding ice-cold binding buffer and filtering through Whatman GF/C filters. The filters were washed and radioactivity was counted with a Wizard 1470 Wallac gamma counter (PerkinElmer, Turku, Finland).
# in vivo [1] = conditions: for Apelin (plasma apelin-immunoreactive level): single animals
# Procedure: (§1) 187 Apelin radioimmunoassay
# (§2) 188 Plasma samples (0.5 ml) were acidified with 0.175 ml of 3 mol/l HCl and stored at -80°C
# (§3) 189 until use for apelin RIA. Before thawing the sample on ice, 0.05% BSA was added, and the
# (§4) 190 samples were centrifuged at 20000 x g at 4°C for 10 min. The supernatants were collected and
# (§5) 191 the pH was adjusted to 6.5 with 10 mol/l NaOH and 2 mol/l Tris-HCl buffer (pH 7.4). Apelin
# (§6) 192 was extracted from plasma by mixing the supernatant with 0.3 ml of 0.1% BSA in H2O and 1
# (§7) 193 ml of 1% trifluoroacetic acid (TFA) - 0.1% BSA, and running the mixture on a Sep-Pak C18
# (§8) 194 cartridge (Waters) previously washed with 2 ml 100% acetonitrile and equilibrated with 5 ml
# (§9) 195 1% TFA - 0.1% BSA. The columns then were washed with 3 ml 1% TFA - 0.1% BSA and
# (§10) 196 apelin was eluted with 1.5 ml 100% acetonitrile. […]
# (§11) 208 Plasma or brain apelin levels w ere deter mined by RIA. Samples (0.1ml) w ere mixed with 125I-
# (§12) 211 dilution: 1/4500) to give a total volume of 0.2 ml and were incubated at 4°C overnight. We
# (§13) 212 used this radioligand instead of [Glp65, Nle75, Tyr77] [125I]-apelin13 since the substitution of
# (§14) 214 derivatives as described previously by 3,4.
# (§15) 215 We then added 0.5 ml of Amerlex (Amersham RPN 510), and the resulting mixture was
# (§16) 216 incubated for 10 min at room temperature. The tubes were centrifuged at 2600 x g at 4°C for
# 217 20 min. The supernatant was removed and the radioactivity of the precipitates was measured.
# 218 We assessed the cross-reactivity of the apelin antiserum with various N- and C-terminally
# 232 according to the following equation: [plasma apelin] tx = [plasma apelin] t0 * e(-kt) , where k is
# 233 the elimination rate constant. […]
# in vivo [2] = conditions: mice, 30 min after s.c. 900 nmol/kg
# Procedure: as §1, §2, §3, §4, §5, §6, §7, §8, §9, §10, §11, §12, §13, §14, §15, §16
# 217 20 min. The supernatant was removed and the radioactivity of the precipitates was measured. […]
# [3] = system: alert Sprague-Dawley rats; test: Mean arterial blood pressure in alert rats; format: in vivo, rat; parameters: SBP_Baseline / SBP_3h / SBP_24h: unit not given here
# Procedure: 291 Blood pressure measurements
# 292 Rats were implanted with a right femoral artery catheter which was passed beneath the skin
# 293 under isoflurane anesthesia. Blood pressure (BP) was recorded in male alert Sprague Dawley
# 294 rats after a recovery period of at least 24 hours, with a PowerLab/Labchart system
# 295 (ADInstruments, Dunedin, New Zealand) connected to the arterial catheter via a pressure
# 296 transducer. Mean arterial BP (MABP) was calculated from the arterial pressure signal as
# 297 previously described 7. The compound was administered s.c. after baseline BP recording for at
# 298 least 30 minutes. BP was then measured at 3 and 24 hours after administration. At the end of
# 299 the experiment, animals were killed with a lethal dose of pentobarbital (Dolethal ®, 150
# mice = test: Left ventricular ejection fraction by echocardiography in mice; format: in vivo, mouse
# Procedure: LVEF was determined in mice under isoflurane anesthesia at baseline and 3 h after s.c. administration of the compound, as previously described.
# hyponatremic rats = test: Plasma AVP and apelin-IR levels in hyponatremic rats (RIA); format: in vivo, rat
# Procedure: as §1
# 189 until use for apelin RIA.
# The supernatants were collected and
# The samples were dried and dissolved in
# 201 centrifuged (17000 x g, 4°C, 20 min). The supernatant (4 ml) was collected, and mixed with
# The columns were then treated as described in
# Samples (0.1ml) w ere mixed with 125I-
# as §13, §14
# 216 incubated for 10 min at room temperature.
# This antiserum identified the apelin present in the
# Most of the apelin in human plasma was
# 252 TechMedILL platfor m (Illkirch) reviewed and approved by the agriculture ministry regulating
# 256 Male Sprague-Dawley rats were killed by decapitation, and trunk blood was collected on ice
# 257 (into 50 µl of 0.3M EDTA (pH 7.4) per 1 ml of blood). Samples were centrifuged (2,600 x g,
# 258 4°C, 20 min), and the resulting plasma was split into 500 µl aliquots, to which we added 168
# 259 µl of 3N HCl before storage at -80°C. The AVP RIA was performed as previously described
# 260 5, using a specific AVP-[Arg8] antibody (final dilution, 1/4.5) and [125I]-(Tyr2Arg8)-AVP
# 261 (2200 Ci/mmol, Perkin-Elmer, Billerica, MA; 15000 dpm) as a tracer. […]
# apelin-R and V2-R = test: dDAVP-induced cAMP production in CHO cells stably expressing both the apelin-R and the V2-R; format: cell-based
compound,measurement,setting,value
CSCC[C@H](NC(=O)[C@@H]1CCCN1C(=O)CNC(=O)[C@H](CCCCN)NC(=O)[C@H](Cc1c[nH]cn1)NC(=O)[C@H](CO)NC(=O)[C@H](CC(C)C)NC(=O)[C@H](CCCNC(=N)N)NC(=O)[C@@H]1CCCN1C(=O)[C@H](CCCNC(=N)N)NC(=O)[C@H](CCC(N)=O)NC(=O)[C@H](CCCNC(=N)N)NC(=O)[C@H](CCCNC(=N)N)NC(=O)[C@H](Cc1ccccc1)NC(=O)[C@H](CCCCN)NC(=O)CCC(F)(F)C(F)(F)C(F)(F)C(F)(F)C(F)(F)C(F)(F)C(F)(F)C(F)(F)F)C(=O)N1CCC[C@H]1C(=O)N[C@@H](Cc1ccccc1)C(=O)O [LIT01-196],Ki,rat apelin-R,0.34 ± 0.05 nM
same,plasma apelin levels,"in vivo [1]; Sprague-Dawley rats, 30 min after s.c. 900 nmol/kg, basal 0.36 ± 0.05, n = 5",1.3 ± 0.22 pmol/mL
same,"in vivo half-life in the blood circulation, i.v.","in vivo [1]; alert rats, 15 nmol/kg i.v., RIA",0.467 h
same,"in vivo half-life in the blood circulation, s.c.","in vivo [1]; alert rats, 900 nmol/kg s.c., RIA",2.6 h
same,Apelin (plasma apelin-immunoreactive level),"in vivo [1]; rats, 15 nmol/kg IV, time 5 min",3.535 and 7.0448
same,Apelin (plasma apelin-immunoreactive level),"in vivo [1]; rats, 15 nmol/kg IV, time 7.5 min",6.127 and 4.75 and 3.783
same,Apelin (plasma apelin-immunoreactive level),"in vivo [1]; rats, 15 nmol/kg IV, time 10 min",3.32 and 4.264
same,Apelin (plasma apelin-immunoreactive level),"in vivo [1]; rats, 15 nmol/kg IV, time 15 min",3.56 and 2.876 and 2.207
same,Apelin (plasma apelin-immunoreactive level),"in vivo [1]; rats, 15 nmol/kg IV, time 60 min",1.212 and 1.2225
same,Apelin (plasma apelin-immunoreactive level),"in vivo [1]; rats, 900 nmol/kg SC, time 60 min",3.999 and 3.58
same,Apelin (plasma apelin-immunoreactive level),"in vivo [1]; rats, 900 nmol/kg SC, time 120 min",2.002 and 1.919 and 1.949
same,Apelin (plasma apelin-immunoreactive level),"in vivo [1]; rats, 900 nmol/kg SC, time 270 min",1.1931 and 0.8899 and 1.066
same,Apelin (plasma apelin-immunoreactive level),"in vivo [1]; rats, 900 nmol/kg SC, time 360 min",1.029 and 0.9091 and 0.7789
same,Apelin (plasma apelin-immunoreactive level),"in vivo [1]; rats, 900 nmol/kg SC, time 1440 min",0.4742 and 0.5151 and 0.6469
same,"plasma apelin levels, times higher than basal levels","in vivo [1]; rats, 30 min after s.c. 900 nmol/kg",3.6 times
same,"plasma apelin-IR levels, times basal levels",in vivo [2],9.7 times
same,plasma apelin-IR levels,"in vivo [2]; basal 1.3 ± 0.073, n = 5",12.4 ± 2.5 pmol/mL
same,SBP_3h,"[3]; 900 nmol/kg SC, 3h, individual animals (Fig. S5A source data)",100.529 and 94.7199 and 92.7855 and 89.7756 and 91.9306
same,SBP_24h,"[3]; 900 nmol/kg SC, 24h, individual animals (Fig. S5A source data)",122.566 and 101.322 and 101.468 and 97.9055
same,SBP_Baseline,"[3]; 900 nmol/kg SC, baseline, individual animals (Fig. S5A source data)",113.98 and 106.154 and 101.631 and 106.857 and 101.074
same,MABP 24 h after administration,"[3]; 900 nmol/kg s.c., alert rats",did not significantly differ from baseline
same,mean arterial blood pressure (MABP) 3 h after administration,"[3]; 900 nmol/kg s.c., alert rats, n = 5, baseline 106 ± 2, p = 0.063",94 ± 2 mmHg
same,FEVG.TM. 3 hours,"mice; 1200 nmol/kg SC, 3 hours, individual animals (Fig. S5B source data)",55.1558 and 58.4253 and 55.5031 and 58.4836 and 58.0536
same,FEVG.TM. Baseline,"mice; 1200 nmol/kg SC, baseline, individual animals (Fig. S5B source data)",49.7762 and 61.2453 and 58.1457 and 44.7681 and 49.1413
same,LVEF 3 h after administration,"mice; 1200 nmol/kg s.c., mice, n = 5, 52.6 ± 3.0 before administration, p = 0.31",57.1 ± 0.7%
same,plasma AVP levels versus AVP-treated rats receiving saline,"hyponatremic rats; 900 nmol/kg s.c., 3 h",No significant difference
same,increase in plasma apelin-IR/AVP ratio relative to saline,"hyponatremic rats; 900 nmol/kg s.c., 3 h, hyponatremic rats",518%
same,"plasma apelin-IR material levels, higher than AVP + saline","hyponatremic rats; 900 nmol/kg s.c., 3 h, n = 5",372%
same,Plasma AVP,"hyponatremic rats; AVP 30 ng/h rats, LIT01-196 900 nmol/kg SC, individual animals (Fig. 6A source data)",26.2192 and 47.0941 and 28.2654 and 46.4247 and 26.8381
same,Plasma apelin,"hyponatremic rats; AVP 30 ng/h rats, LIT01-196 900 nmol/kg SC, individual animals (Fig. 6B source data)",2578 and 2160 and 2508 and 1740 and 2599
same,Apelin to AVP ratio,"hyponatremic rats; AVP 30 ng/h rats, LIT01-196 900 nmol/kg SC, individual animals (Fig. 6C source data)",98.309 and 45.8759 and 88.7295 and 37.4882 and 96.8538
same,dDAVP-induced cAMP production,apelin-R and V2-R,dose-dependently inhibits
